From the OligoGym collection come the findings set out here.

Series [1] addresses UBE2L3. As to the kind of experiment: reporter assay of Huesken 2005. The conditions noted are these: siRNA.
In series [2] the target is CDC34. Kind of series: reporter assay of Huesken 2005. The conditions noted are these: siRNA. (In general: A reporter such as luciferase makes a cellular process visible.)

Oligonucleotides are written 5' to 3', each unit as a sugar letter and its base; * is a phosphorothioate linkage, no mark a phosphodiester; rarer units and linkages stand in square brackets, end groups in braces. Plain capitals give the bases only. Oligonucleotides are given in HELM: sugar(base)linkage, 5' to 3'; d 2'-deoxyribose, r ribose, m 2'-O-methylribose, p phosphate. ss, as = sense and antisense strand; d = 2'-deoxy (DNA); r = 2'-OH (RNA)
Further: test concentration or dose not given here.

Consider “sense rArUrUrUrArArArArCrArArArGrArUrCrUrArUdTdT / antisense rArUrArGrArUrCrUrUrUrGrUrUrUrUrArArArUdGdT”, for which the normalised inhibition (eCFP-eYFP dual reporter) in series [1] was 65.5%.

As for “sense rCrArUrArGrCrArCrUrGrGrUrGrArArUrGrArCdTdT / antisense rGrUrCrArUrUrCrArCrCrArGrUrGrCrUrArUrGdAdG”, the normalised inhibition (eCFP-eYFP dual reporter) in series [1] was found to be 80.9%.

As for “sense rArCrCrArArGrUrArArUrCrCrArGrUrCrCrCrUdTdT / antisense rArGrGrGrArCrUrGrGrArUrUrArCrUrUrGrGrUdCdG”, the normalised inhibition (eCFP-eYFP dual reporter) in series [1] amounted to 87.3%.

In turn, “sense rUrCrCrUrGrArCrArArCrCrCrUrCrCrArUrArUdTdT / antisense rArUrArUrGrGrArGrGrGrUrUrGrUrCrArGrGrAdAdC” registered a normalised inhibition (eCFP-eYFP dual reporter) in series [1] of 69.7%.

For the substance “sense rCrArArCrCrArArArArCrCrGrArCrCrArArGrUdTdT / antisense rArCrUrUrGrGrUrCrGrGrUrUrUrUrGrGrUrUrGdCdT”, the normalised inhibition (eCFP-eYFP dual reporter) in series [1] was 87%.

Consider “sense rGrUrCrUrGrUrCrUrGrCrCrArGrUrArArUrUrAdTdT / antisense rUrArArUrUrArCrUrGrGrCrArGrArCrArGrArCdCdT”, for which the normalised inhibition (eCFP-eYFP dual reporter) in series [1] was determined as 91%.

With “sense rUrUrCrGrGrGrCrUrGrArCrCrUrArGrCrUrGrAdTdT / antisense rUrCrArGrCrUrArGrGrUrCrArGrCrCrCrGrArAdGdC”, in series [1], the normalised inhibition (eCFP-eYFP dual reporter) was determined as 49%.

“RNA1{r(C)p.r(G)p.r(C)p.r(C)p.r(U)p.r(C)p.r(C)p.r(G)p.r(U)p.r(G)p.r(A)p.r(U)p.r(G)p.r(U)p.r(A)p.r(C)p.r(A)p.r(G)p.r(G)p.d(T)p.d(T)}|RNA2{r(C)p.r(C)p.r(U)p.r(G)p.r(U)p.r(A)p.r(C)p.r(A)p.r(U)p.r(C)p.r(A)p.r(C)p.r(G)p.r(G)p.r(A)p.r(G)p.r(G)p.r(C)p.r(G)p.d(T)p.d(C)}$$$RNA1{StrandType:ss}|RNA2{StrandType:as}$”: the normalised inhibition (eCFP-eYFP dual reporter) in series [2] came out at 36.4%.

In series [2], “RNA1{r(G)p.r(A)p.r(C)p.r(G)p.r(A)p.r(G)p.r(G)p.r(G)p.r(C)p.r(U)p.r(C)p.r(A)p.r(G)p.r(A)p.r(C)p.r(C)p.r(U)p.r(C)p.r(U)p.d(T)p.d(T)}|RNA2{r(A)p.r(G)p.r(A)p.r(G)p.r(G)p.r(U)p.r(C)p.r(U)p.r(G)p.r(A)p.r(G)p.r(C)p.r(C)p.r(C)p.r(U)p.r(C)p.r(G)p.r(U)p.r(C)p.d(G)p.d(G)}$$$RNA1{StrandType:ss}|RNA2{StrandType:as}$” came in with a normalised inhibition (eCFP-eYFP dual reporter) of 51.7%.

In series [2], “RNA1{r(G)p.r(G)p.r(G)p.r(G)p.r(C)p.r(U)p.r(G)p.r(C)p.r(A)p.r(G)p.r(G)p.r(A)p.r(A)p.r(G)p.r(A)p.r(G)p.r(C)p.r(C)p.r(G)p.d(T)p.d(T)}|RNA2{r(C)p.r(G)p.r(G)p.r(C)p.r(U)p.r(C)p.r(U)p.r(U)p.r(C)p.r(C)p.r(U)p.r(G)p.r(C)p.r(A)p.r(G)p.r(C)p.r(C)p.r(C)p.r(C)p.d(T)p.d(T)}$$$RNA1{StrandType:ss}|RNA2{StrandType:as}$” displayed a normalised inhibition (eCFP-eYFP dual reporter) of 47.6%.

The substance “RNA1{r(C)p.r(G)p.r(A)p.r(C)p.r(G)p.r(A)p.r(C)p.r(U)p.r(A)p.r(C)p.r(U)p.r(A)p.r(C)p.r(G)p.r(G)p.r(G)p.r(A)p.r(C)p.r(G)p.d(T)p.d(T)}|RNA2{r(C)p.r(G)p.r(U)p.r(C)p.r(C)p.r(C)p.r(G)p.r(U)p.r(A)p.r(G)p.r(U)p.r(A)p.r(G)p.r(U)p.r(C)p.r(G)p.r(U)p.r(C)p.r(G)p.d(T)p.d(A)}$$$RNA1{StrandType:ss}|RNA2{StrandType:as}$” gave a normalised inhibition (eCFP-eYFP dual reporter) in series [2] of 62.7%.

For the substance “RNA1{r(C)p.r(C)p.r(G)p.r(A)p.r(G)p.r(U)p.r(A)p.r(C)p.r(U)p.r(G)p.r(C)p.r(G)p.r(U)p.r(G)p.r(A)p.r(A)p.r(G)p.r(A)p.r(C)p.d(T)p.d(T)}|RNA2{r(G)p.r(U)p.r(C)p.r(U)p.r(U)p.r(C)p.r(A)p.r(C)p.r(G)p.r(C)p.r(A)p.r(G)p.r(U)p.r(A)p.r(C)p.r(U)p.r(C)p.r(G)p.r(G)p.d(C)p.d(C)}$$$RNA1{StrandType:ss}|RNA2{StrandType:as}$”, in series [2], the normalised inhibition (eCFP-eYFP dual reporter) worked out at 59%.

“RNA1{r(G)p.r(A)p.r(U)p.r(G)p.r(U)p.r(A)p.r(C)p.r(A)p.r(G)p.r(G)p.r(A)p.r(A)p.r(G)p.r(U)p.r(G)p.r(G)p.r(A)p.r(A)p.r(A)p.d(T)p.d(T)}|RNA2{r(U)p.r(U)p.r(U)p.r(C)p.r(C)p.r(A)p.r(C)p.r(U)p.r(U)p.r(C)p.r(C)p.r(U)p.r(G)p.r(U)p.r(A)p.r(C)p.r(A)p.r(U)p.r(C)p.d(A)p.d(C)}$$$RNA1{StrandType:ss}|RNA2{StrandType:as}$” returned a normalised inhibition (eCFP-eYFP dual reporter) in series [2] of 82.9%.

With “RNA1{r(A)p.r(C)p.r(G)p.r(C)p.r(U)p.r(G)p.r(G)p.r(C)p.r(C)p.r(G)p.r(A)p.r(G)p.r(U)p.r(A)p.r(C)p.r(U)p.r(G)p.r(C)p.r(G)p.d(T)p.d(T)}|RNA2{r(C)p.r(G)p.r(C)p.r(A)p.r(G)p.r(U)p.r(A)p.r(C)p.r(U)p.r(C)p.r(G)p.r(G)p.r(C)p.r(C)p.r(A)p.r(G)p.r(C)p.r(G)p.r(U)p.d(G)p.d(G)}$$$RNA1{StrandType:ss}|RNA2{StrandType:as}$”, in series [2], the normalised inhibition (eCFP-eYFP dual reporter) turned out to be 52.4%.

For “RNA1{r(C)p.r(G)p.r(C)p.r(G)p.r(U)p.r(G)p.r(A)p.r(C)p.r(A)p.r(C)p.r(U)p.r(G)p.r(G)p.r(U)p.r(G)p.r(G)p.r(A)p.r(C)p.r(G)p.d(T)p.d(T)}|RNA2{r(C)p.r(G)p.r(U)p.r(C)p.r(C)p.r(A)p.r(C)p.r(C)p.r(A)p.r(G)p.r(U)p.r(G)p.r(U)p.r(C)p.r(A)p.r(C)p.r(G)p.r(C)p.r(G)p.d(G)p.d(A)}$$$RNA1{StrandType:ss}|RNA2{StrandType:as}$”, in series [2], the normalised inhibition (eCFP-eYFP dual reporter) was 67.3%.

In series [2], “RNA1{r(A)p.r(C)p.r(G)p.r(U)p.r(C)p.r(A)p.r(G)p.r(G)p.r(A)p.r(C)p.r(C)p.r(A)p.r(U)p.r(U)p.r(C)p.r(U)p.r(C)p.r(C)p.r(U)p.d(T)p.d(T)}|RNA2{r(A)p.r(G)p.r(G)p.r(A)p.r(G)p.r(A)p.r(A)p.r(U)p.r(G)p.r(G)p.r(U)p.r(C)p.r(C)p.r(U)p.r(G)p.r(A)p.r(C)p.r(G)p.r(U)p.d(T)p.d(C)}$$$RNA1{StrandType:ss}|RNA2{StrandType:as}$” had a normalised inhibition (eCFP-eYFP dual reporter) of 72.2%.

“RNA1{r(A)p.r(A)p.r(C)p.r(G)p.r(U)p.r(G)p.r(G)p.r(A)p.r(C)p.r(G)p.r(C)p.r(C)p.r(U)p.r(C)p.r(C)p.r(G)p.r(U)p.r(G)p.r(A)p.d(T)p.d(T)}|RNA2{r(U)p.r(C)p.r(A)p.r(C)p.r(G)p.r(G)p.r(A)p.r(G)p.r(G)p.r(C)p.r(G)p.r(U)p.r(C)p.r(C)p.r(A)p.r(C)p.r(G)p.r(U)p.r(U)p.d(T)p.d(G)}$$$RNA1{StrandType:ss}|RNA2{StrandType:as}$” came in with a normalised inhibition (eCFP-eYFP dual reporter) in series [2] of 55.2%.

As to “RNA1{r(A)p.r(A)p.r(G)p.r(A)p.r(C)p.r(C)p.r(A)p.r(A)p.r(G)p.r(G)p.r(C)p.r(G)p.r(C)p.r(C)p.r(G)p.r(G)p.r(C)p.r(G)p.r(C)p.d(T)p.d(T)}|RNA2{r(G)p.r(C)p.r(G)p.r(C)p.r(C)p.r(G)p.r(G)p.r(C)p.r(G)p.r(C)p.r(C)p.r(U)p.r(U)p.r(G)p.r(G)p.r(U)p.r(C)p.r(U)p.r(U)p.d(C)p.d(A)}$$$RNA1{StrandType:ss}|RNA2{StrandType:as}$”, the normalised inhibition (eCFP-eYFP dual reporter) in series [2] amounted to 25.5%.

The substance “RNA1{r(A)p.r(C)p.r(C)p.r(C)p.r(C)p.r(A)p.r(C)p.r(G)p.r(C)p.r(A)p.r(G)p.r(A)p.r(A)p.r(C)p.r(G)p.r(U)p.r(C)p.r(A)p.r(G)p.d(T)p.d(T)}|RNA2{r(C)p.r(U)p.r(G)p.r(A)p.r(C)p.r(G)p.r(U)p.r(U)p.r(C)p.r(U)p.r(G)p.r(C)p.r(G)p.r(U)p.r(G)p.r(G)p.r(G)p.r(G)p.r(U)p.d(T)p.d(C)}$$$RNA1{StrandType:ss}|RNA2{StrandType:as}$” showed a normalised inhibition (eCFP-eYFP dual reporter) in series [2] of 57.8%.

Turning to “RNA1{r(A)p.r(A)p.r(G)p.r(A)p.r(U)p.r(G)p.r(U)p.r(G)p.r(G)p.r(C)p.r(A)p.r(C)p.r(C)p.r(C)p.r(U)p.r(A)p.r(A)p.r(C)p.r(A)p.d(T)p.d(T)}|RNA2{r(U)p.r(G)p.r(U)p.r(U)p.r(A)p.r(G)p.r(G)p.r(G)p.r(U)p.r(G)p.r(C)p.r(C)p.r(A)p.r(C)p.r(A)p.r(U)p.r(C)p.r(U)p.r(U)p.d(G)p.d(G)}$$$RNA1{StrandType:ss}|RNA2{StrandType:as}$”, the normalised inhibition (eCFP-eYFP dual reporter) in series [2] was 36.7%.

Consider “RNA1{r(U)p.r(G)p.r(G)p.r(C)p.r(A)p.r(C)p.r(C)p.r(C)p.r(U)p.r(A)p.r(A)p.r(C)p.r(A)p.r(U)p.r(C)p.r(U)p.r(A)p.r(C)p.r(G)p.d(T)p.d(T)}|RNA2{r(C)p.r(G)p.r(U)p.r(A)p.r(G)p.r(A)p.r(U)p.r(G)p.r(U)p.r(U)p.r(A)p.r(G)p.r(G)p.r(G)p.r(U)p.r(G)p.r(C)p.r(C)p.r(A)p.d(C)p.d(A)}$$$RNA1{StrandType:ss}|RNA2{StrandType:as}$”, for which the normalised inhibition (eCFP-eYFP dual reporter) in series [2] amounted to 25.1%.

The substance “RNA1{r(C)p.r(G)p.r(U)p.r(C)p.r(A)p.r(G)p.r(G)p.r(A)p.r(C)p.r(C)p.r(A)p.r(U)p.r(U)p.r(C)p.r(U)p.r(C)p.r(C)p.r(U)p.r(G)p.d(T)p.d(T)}|RNA2{r(C)p.r(A)p.r(G)p.r(G)p.r(A)p.r(G)p.r(A)p.r(A)p.r(U)p.r(G)p.r(G)p.r(U)p.r(C)p.r(C)p.r(U)p.r(G)p.r(A)p.r(C)p.r(G)p.d(T)p.d(T)}$$$RNA1{StrandType:ss}|RNA2{StrandType:as}$” came in with a normalised inhibition (eCFP-eYFP dual reporter) in series [2] of 72.1%.

In series [2], “RNA1{r(C)p.r(A)p.r(C)p.r(U)p.r(G)p.r(G)p.r(U)p.r(G)p.r(G)p.r(A)p.r(C)p.r(G)p.r(A)p.r(G)p.r(G)p.r(G)p.r(C)p.r(G)p.r(A)p.d(T)p.d(T)}|RNA2{r(U)p.r(C)p.r(G)p.r(C)p.r(C)p.r(C)p.r(U)p.r(C)p.r(G)p.r(U)p.r(C)p.r(C)p.r(A)p.r(C)p.r(C)p.r(A)p.r(G)p.r(U)p.r(G)p.d(T)p.d(C)}$$$RNA1{StrandType:ss}|RNA2{StrandType:as}$” came in with a normalised inhibition (eCFP-eYFP dual reporter) of 75.5%.

Regarding “RNA1{r(A)p.r(G)p.r(G)p.r(U)p.r(G)p.r(G)p.r(A)p.r(A)p.r(C)p.r(C)p.r(C)p.r(C)p.r(A)p.r(C)p.r(G)p.r(C)p.r(A)p.r(G)p.r(A)p.d(T)p.d(T)}|RNA2{r(U)p.r(C)p.r(U)p.r(G)p.r(C)p.r(G)p.r(U)p.r(G)p.r(G)p.r(G)p.r(G)p.r(U)p.r(U)p.r(C)p.r(C)p.r(A)p.r(C)p.r(C)p.r(U)p.d(C)p.d(T)}$$$RNA1{StrandType:ss}|RNA2{StrandType:as}$”, the normalised inhibition (eCFP-eYFP dual reporter) in series [2] is 72.6%.
